For this test, the target named is Perilipin-1 (Homo sapiens) + 1-acylglycerol-3-phosphate O-acyltransferase ABHD5 (Homo sapiens) (UniProt O60240+Q8WTS1). The test can be described thus: inhibition of ABHD5 association with perilipin-1 – biochemical, luminescence, dose response, counter-screen for ABHD5-PLIN5 interaction inhibitor project, late-stage follow-up (AID 651766). Conditions: ABHD5-PLIN1 interaction. Background: The purpose of a counterscreen is to sort out artefacts and off-target activity.

Where “and” joins values, the source holds several entries; their conditions need not be identical. Identical values can stand only once. Calls of active or inactive are those of the source. No rule for the calls is given here. Some results are limits rather than exact numbers.

As usually defined, the IC50 is the concentration needed to halve the response being measured. Turning to `O=c1[nH]c(C2CCN(S(=O)(=O)c3ccc(S(=O)(=O)NC4CC4)cc3)CC2)nc2c1nnn2Cc1ccc(F)cc1`, the IC50 is 1.99 µM.

As for `Cc1nc2c(o1)CCc1ccccc1C2N1CCN(C)CC1` (stereo unspecified), the concentration for half-maximal inhibition (IC50) is 4.16 µM.

Regarding `CC(=O)Oc1ccc(C23c4ccccc4C2(OC(C)=O)c2cc(OC(C)=O)ccc23)cc1` (stereo unspecified), the IC50 is > 39.8 µM (inactive).

As for `CCN(CC)CCN(CC(=O)Nc1c(C)cc(C)cc1C)C(=O)c1ccccc1`, the IC50 was 7.34 µM.

For the molecule `CCOc1cc(N)c(Cl)cc1C(=O)NCC1CN(Cc2ccc(F)cc2)CCO1` (stereo unspecified), the IC50 is 1.2 µM.

With `COc1cc(OC)cc(C(=O)NC(=S)N(Cc2ccccc2)C(C)C)c1`, the 50% inhibitory concentration (IC50) was 1.46 µM.

Take `COc1cc2c(cc1OC)C(C)N(CCc1ccc(Cl)cc1)CC2` (stereo unspecified): the IC50 entry is “inactive”.

On to `CCN(CC)CCOc1ccc(/C(=C(/Cl)c2ccccc2)c2ccccc2)cc1`, for which the half-maximal inhibitory concentration (IC50) was 0.983 µM.

In the case of `CN(C)CCOC1(Cc2ccc(F)cc2)CCC(C(C)(C)C)CC1` (stereo unspecified), the IC50 is > 39.8 µM (inactive).

With `COc1cc(C)c2sc3ccccc3c(=O)c2c1NCCN(C)C`, the IC50 is > 39.8 µM (inactive).

With `CCN(CC)CCC(C)OC(c1ccccc1)c1ccccc1` (stereo unspecified), the IC50 was 1.44 µM.

As to `O=c1[nH]c(C2CCN(S(=O)(=O)c3ccc(F)cc3)CC2)nc2c1nnn2Cc1ccc2c(c1)OCCO2`, the IC50 is 8.94 µM.

Regarding `COc1ccc(NC(=S)N(CCCN2CCCC2)Cc2cccn2Cc2ccc(Cl)cc2)cc1Cl`, the IC50 result was “inactive”.

`CCOC(=O)c1c(NC(=O)/C=C/C(=O)O)sc(C)c1-c1ccc(C(C)(C)C)cc1`: the IC50 is 3.72 µM.

Take `CC1Sc2ccc(S(=O)(=O)N3CCC(C(=O)NCc4ccc(Cl)cc4)CC3)cc2NC1=O` (stereo unspecified): the IC50 was 4.51 µM.

As to `Cc1cc(C)c(NC(=O)CN2CCN3CCCC3C2)c(C)c1` (stereo unspecified), the IC50 entry was “inactive”.

As to `CCCCNC(=O)Nc1ccc2c(c1)N(C)C(=O)c1ccccc1S2`, the IC50 was 1.46 µM.

For the molecule `Cc1ccc2nc3cc([N+](=O)[O-])cc([N+](=O)[O-])c3cc2c1`, the 50% inhibitory concentration (IC50) was 0.496 µM.

With `CN1CCC(=C2c3ccccc3CC(=O)c3sccc32)CC1`, the IC50 is > 39.8 µM (inactive).

Consider `CCCNC(=O)Nc1ccc2c(c1)N(C)C(=O)c1ccccc1S2`, for which the 50% inhibitory concentration (IC50) was 3.73 µM.

Take `O=C(C[n+]1cccc(CNC(=O)c2ccc(OC(F)F)cc2)c1)Nc1cccc(C(F)(F)F)c1`: the IC50 result is “inactive”.

`C=C[C@]1(C)C[C@@H](OC(=O)CSCCN(CC)CC)[C@]2(C)C(C)CC[C@]3(CCC(=O)[C@H]32)[C@@H](C)[C@@H]1O` (stereo partly specified): the IC50 result is “inactive”.

Regarding `NC(=NCCCCCCN=C(N)/N=C(\N)Nc1ccc(Cl)cc1)/N=C(\N)Nc1ccc(Cl)cc1`, the 50% inhibitory concentration (IC50) is 2.14 µM and 2.18 µM.

As to `FC(F)(F)c1cccc(NC(=S)N(CCCN2CCCC2)Cc2cccn2Cc2ccc(Cl)cc2)c1`, the IC50 was 8.99 µM.

Take `CC(=O)Nc1ccc(S(=O)(=O)N2c3ccc(F)cc3CCC2C)cc1` (stereo unspecified): the 50% inhibitory concentration (IC50) was 5.16 µM.

In the case of `CC(=O)Cc1cc(O)c2ccccc2c1OC(=O)c1ccccc1`, the half-inhibitory concentration (IC50) is 1.36 µM.

With `Cc1cc(C)c(NC(=O)C[N+](C)(C)CC(O)COc2cccc3ccccc23)c(C)c1` (stereo unspecified), the IC50 was 4.48 µM.

In the case of `COc1ccc(C)c2sc(N(CCN(C)C)C(=O)/C=C/c3cccs3)nc12`, the half-inhibitory concentration (IC50) is 7.16 µM.

As to `CN(C)CCCN(C(=O)CCc1ccccc1)c1nc2ccc(Br)cc2s1`, the concentration for half-maximal inhibition (IC50) is 6.82 µM.

`CC1CCN(S(=O)(=O)c2ccc(NC(=O)Cc3cccs3)cc2)CC1`: the half-inhibitory concentration (IC50) is 3.54 µM.

As for `CC1=CC(C)(C)Nc2ccc(OC(=O)C(C)N3C(=O)c4ccccc4C3=O)cc21` (stereo unspecified), the IC50 was 2.13 µM.

Consider `CN(C)CCCN(C(=O)CCc1ccccc1)c1nc2ccc(Cl)cc2s1`, for which the concentration for half-maximal inhibition (IC50) is 5.99 µM.

`Cc1cc(C)c2nc(NNC(=O)c3ccc(S(=O)(=O)N4CCCC(C)C4)cc3)sc2c1` (stereo unspecified): the half-maximal inhibitory concentration (IC50) was 2.53 µM.

For `CCOC(=O)c1c(NC(C)=O)sc2c1CCC(C=O)=C2Sc1ccccc1`, the IC50 is 1.62 µM.

As for `O=C(/C(=C/O)N=Nc1ccc(Cl)cc1)c1ccncc1`, the 50% inhibitory concentration (IC50) was 5.2 µM.

Take `CC(=O)Cc1cc(O)c2ccccc2c1OC(=O)c1ccc(Br)cc1`: the IC50 was 2.04 µM.

Regarding `CN(C)CCN(Cc1ccco1)c1ccccn1`, the IC50 is > 39.8 µM (inactive).

In the case of `CCCCOC(=O)Nc1cc(C(=O)OC)ccc1C(=O)OC`, the IC50 was 3.83 µM.

For the molecule `COCCN(CCOC)c1nc(N)c2c(N)nc3c(c2c1C#N)CC(=O)N3Cc1ccc(Cl)cc1`, the IC50 was > 39.8 µM (inactive).

Consider `Cc1ccc2c(CC(=O)N3CCN(S(=O)(=O)c4ccc5c(c4)OCCO5)CC3)coc2c1`, for which the IC50 is 2.38 µM and 1.6 µM.

For the molecule `CC(CCc1ccco1)NC(=O)CCc1nnc2ccc(NCc3ccccc3Cl)nn12` (stereo unspecified), the concentration for half-maximal inhibition (IC50) was 0.744 µM.

Take `CCN(CC)CCNC(=O)c1ccc(NC(=O)c2cn(-c3ccccc3)nc2-c2cccs2)cc1`: the IC50 result is “inactive”.

Consider `CC1CCN(S(=O)(=O)c2ccc(NC(=O)Cc3ccccc3)cc2)CC1`, for which the IC50 was 3.98 µM.

Turning to `COc1ccccc1-c1cc(C(=O)NC2CCN(C)CC2)c2ccc(Cl)c(C)c2n1`, the 50% inhibitory concentration (IC50) is 9.85 µM.

On to `CCN(CC)CCOCCOC(=O)C1(c2ccccc2)CCCC1`, for which the IC50 was 0.925 µM.

As to `CC(C)c1ccc(N2C=Nc3ccc(C(C)C)cc3C2)cc1`, the IC50 is 1.26 µM.

The values are drawn from PubChem BioAssay AID651766 (The Scripps Research Institute Molecular Screening Center, 2012).
